In patent publication US11452727B2, “Combination therapy for treating cancer” (Epizyme, Inc., priority 2017, dated 2022):

What was measured:
Experiment in all cases: In vitro combination study with tazemetostat, cell proliferation (Cell Titer Glo)
A427 = conditions: A427; 7 days tazemetostat pre-treatment, 6 days co-treatment with second agent
Method: (§1) Initial proliferation studies were performed to determine the IC50 of tazemetostat in each cell line. For the screen, tazemetostat was used at concentrations bracketed around the IC50 value. If 50% inhibitory concentration was not reached then tazemetostat was tested starting at 10 μM.
(§2) In order to study the effect of dual combination of tazemetostat and a second agent on cell proliferation, cells in log-linear phase growth rate were pre-treated with various concentrations of tazemetostat or DMSO for 7 days in flasks, plated in 384-well plates in the absence of compounds and co-treated on day 8 with tazemetostat or DMSO and the second agent serially diluted for additional 6 days (as depicted in FIG. 1). On day 15, plates were developed for endpoint analysis using Cell Titer Glo to measure ATP content, which was used as an indicator of cell viability. DMSO concentration was kept constant throughout the assay at 0.15% v/v.
(§3) All cell lines were obtained from American Type Culture Collection (ATCC; Rockville, Md.). […] A427, Calu-3, Calu-6 cell lines were cultured in EMEM+10% Fetal bovine serum (FBS)+1% v/v Penicillin/Streptomycin (P/S).

A549 = conditions: 7 days tazemetostat pre-treatment, 6 days co-treatment with second agent
Method: as §1, §2

NCI-H1299 = conditions: 7 days tazemetostat pre-treatment, 6 days co-treatment with second agent
Method: as §1, §2

NCI-H1573 = conditions: 7 days tazemetostat pre-treatment, 6 days co-treatment with second agent
Method: as §1, §2
(§4) NCI-H1573 was cultured in DMEM: F12 Medium containing the following components: 0.02 mg/ml insulin, 0.01 mg/ml transferrin, 25 nM sodium selenite, 50 nM Hydrocortisone, 1 ng/ml Epidermal Growth Factor, 0.01 mM ethanolamine, 0.01 mM phosphorylethanolamine, 100 pM triiodothyronine, 0.5% (w/v) bovine serum albumin, 0.5 mM sodium pyruvate, 4.5 mM L-glutamine and 1% v/v Pen/Strep.

NCI-H1703 = conditions: 7 days tazemetostat pre-treatment, 6 days co-treatment with second agent
Method: as §1, §2

NCI-H1793 = conditions: 7 days tazemetostat pre-treatment, 6 days co-treatment with second agent
Method: as §1, §2, §4

NCI-H1993 = conditions: 7 days tazemetostat pre-treatment, 6 days co-treatment with second agent
NCI-H2030 = conditions: 7 days tazemetostat pre-treatment, 6 days co-treatment with second agent
Method: as §1, §2

NCI-H2110 = conditions: 7 days tazemetostat pre-treatment, 6 days co-treatment with second agent
NCI-H2122 = conditions: 7 days tazemetostat pre-treatment, 6 days co-treatment with second agent
Method: as §1, §2, §3

NCI-H23 = conditions: 7 days tazemetostat pre-treatment, 6 days co-treatment with second agent
Method: as §1, §2, §3

NCI-H460 = conditions: 7 days tazemetostat pre-treatment, 6 days co-treatment with second agent
Method: as §1, §2, §3

NCI-H522 = conditions: 7 days tazemetostat pre-treatment, 6 days co-treatment with second agent
Method: as §1, §2

NCI-H661 = conditions: 7 days tazemetostat pre-treatment, 6 days co-treatment with second agent
Method: as §1, §2, §3

NCI-H838 = conditions: 7 days tazemetostat pre-treatment, 6 days co-treatment with second agent
Calu-3 = conditions: 7 days tazemetostat pre-treatment, 6 days co-treatment with second agent
Method: as §1, §2, §4

Calu-6 = conditions: 7 days tazemetostat pre-treatment, 6 days co-treatment with second agent
HCC827 = conditions: 7 days tazemetostat pre-treatment, 6 days co-treatment with second agent
Method: as §1, §2, §4

| Compound | combinatorial effect with tazemetostat (Loewe volume class) (A427) | combinatorial effect with tazemetostat (Loewe volume class) (A549) | combinatorial effect with tazemetostat (Loewe volume class) (NCI-H1299) | combinatorial effect with tazemetostat (Loewe volume class) (NCI-H1573) | combinatorial effect with tazemetostat (Loewe volume class) (NCI-H1703) | combinatorial effect with tazemetostat (Loewe volume class) (NCI-H1793) | combinatorial effect with tazemetostat (Loewe volume class) (NCI-H1993) | combinatorial effect with tazemetostat (Loewe volume class) (NCI-H2030) | combinatorial effect with tazemetostat (Loewe volume class) (NCI-H2110) | combinatorial effect with tazemetostat (Loewe volume class) (NCI-H2122) | combinatorial effect with tazemetostat (Loewe volume class) (NCI-H23) | combinatorial effect with tazemetostat (Loewe volume class) (NCI-H460) | combinatorial effect with tazemetostat (Loewe volume class) (NCI-H522) | combinatorial effect with tazemetostat (Loewe volume class) (NCI-H661) | combinatorial effect with tazemetostat (Loewe volume class) (NCI-H838) | combinatorial effect with tazemetostat (Loewe volume class) (Calu-3) | combinatorial effect with tazemetostat (Loewe volume class) (Calu-6) | combinatorial effect with tazemetostat (Loewe volume class) (HCC827) |
| --- | --- | --- | --- | --- | --- | --- | --- | --- | --- | --- | --- | --- | --- | --- | --- | --- | --- | --- |
| CC(=O)O[C@@]12CO[C@@H]1C[C@H](O)[C@@]1(C)C(=O)[C@H](O)C3=C(C)[C@@H](OC(=O)[C@H](O)[C@@H](NC(=O)OC(C)(C)C)c4ccccc4)C[C@@](O)([C@@H](OC(=O)c4ccccc4)[C@H]21)C3(C)C [Docetaxel, docetaxel] | Syn. (Loewe volumes greater than 1 denoted “synergy”) | Add. (A value between −1 and 1 denoted “additivity”) | Syn. (Loewe volumes greater than 1 denoted “synergy”) | Add. (A value between −1 and 1 denoted “additivity”) | Add. (A value between −1 and 1 denoted “additivity”) | Syn. (Loewe volumes greater than 1 denoted “synergy”) | Add. (A value between −1 and 1 denoted “additivity”) | Syn. (Loewe volumes greater than 1 denoted “synergy”) | Add. (A value between −1 and 1 denoted “additivity”) | Add. (A value between −1 and 1 denoted “additivity”) | Add. (A value between −1 and 1 denoted “additivity”) | Syn. (Loewe volumes greater than 1 denoted “synergy”) | Add. (A value between −1 and 1 denoted “additivity”) | Syn. (Loewe volumes greater than 1 denoted “synergy”) | Add. (A value between −1 and 1 denoted “additivity”) | Syn. (Loewe volumes greater than 1 denoted “synergy”) | Add. (A value between −1 and 1 denoted “additivity”) | Add. (A value between −1 and 1 denoted “additivity”) |
| Cn1cnc2c(F)c(Nc3ccc(Br)cc3Cl)c(C(=O)NOCCO)cc21 [Selumetinib, selumetinib] | Syn. (Loewe volumes greater than 1 denoted “synergy”) | Add. (A value between −1 and 1 denoted “additivity”) | Add. (A value between −1 and 1 denoted “additivity”) | Syn. (Loewe volumes greater than 1 denoted “synergy”) | Syn. (Loewe volumes greater than 1 denoted “synergy”) | Syn. (Loewe volumes greater than 1 denoted “synergy”) | Syn. (Loewe volumes greater than 1 denoted “synergy”) | Add. (A value between −1 and 1 denoted “additivity”) | Syn. (Loewe volumes greater than 1 denoted “synergy”) | Anta. (volumes <−1 denoted “antagonism”) | Add. (A value between −1 and 1 denoted “additivity”) | Anta. (volumes <−1 denoted “antagonism”) | Syn. (Loewe volumes greater than 1 denoted “synergy”) | Syn. (Loewe volumes greater than 1 denoted “synergy”) | Syn. (Loewe volumes greater than 1 denoted “synergy”) | Syn. (Loewe volumes greater than 1 denoted “synergy”) | Syn. (Loewe volumes greater than 1 denoted “synergy”) | Add. (A value between −1 and 1 denoted “additivity”) |
| C=CCn1c(=O)c2cnc(Nc3ccc(N4CCN(C)CC4)cc3)nc2n1-c1cccc(C(C)(C)O)n1 [MK-1775] | Syn. (Loewe volumes greater than 1 denoted “synergy”) | Add. (A value between −1 and 1 denoted “additivity”) | Add. (A value between −1 and 1 denoted “additivity”) | Syn. (Loewe volumes greater than 1 denoted “synergy”) | Syn. (Loewe volumes greater than 1 denoted “synergy”) | Syn. (Loewe volumes greater than 1 denoted “synergy”) | Add. (A value between −1 and 1 denoted “additivity”) | Syn. (Loewe volumes greater than 1 denoted “synergy”) | Add. (A value between −1 and 1 denoted “additivity”) | Add. (A value between −1 and 1 denoted “additivity”) | Syn. (Loewe volumes greater than 1 denoted “synergy”) | Add. (A value between −1 and 1 denoted “additivity”) | Syn. (Loewe volumes greater than 1 denoted “synergy”) | Syn. (Loewe volumes greater than 1 denoted “synergy”) | Add. (A value between −1 and 1 denoted “additivity”) | Add. (A value between −1 and 1 denoted “additivity”) | Syn. (Loewe volumes greater than 1 denoted “synergy”) | Add. (A value between −1 and 1 denoted “additivity”) |
| CCN1CCN(Cc2ccc(Nc3ncc(F)c(-c4cc(F)c5nc(C)n(C(C)C)c5c4)n3)nc2)CC1 [Abemaciclib, abemaciclib] | Syn. (Loewe volumes greater than 1 denoted “synergy”) | Add. (A value between −1 and 1 denoted “additivity”) | Anta. (volumes <−1 denoted “antagonism”) | Add. (A value between −1 and 1 denoted “additivity”) | Add. (A value between −1 and 1 denoted “additivity”) | Syn. (Loewe volumes greater than 1 denoted “synergy”) | Syn. (Loewe volumes greater than 1 denoted “synergy”) | Syn. (Loewe volumes greater than 1 denoted “synergy”) | Add. (A value between −1 and 1 denoted “additivity”) | Anta. (volumes <−1 denoted “antagonism”) | Add. (A value between −1 and 1 denoted “additivity”) | Add. (A value between −1 and 1 denoted “additivity”) | Add. (A value between −1 and 1 denoted “additivity”) | Syn. (Loewe volumes greater than 1 denoted “synergy”) | Add. (A value between −1 and 1 denoted “additivity”) | Add. (A value between −1 and 1 denoted “additivity”) | Syn. (Loewe volumes greater than 1 denoted “synergy”) | Add. (A value between −1 and 1 denoted “additivity”) |
